Assay results: US9145375B2, “Quinazolinone compounds” (PRANA BIOTECHNOLOGY LIMITED, priority 2008, dated 2015)
“And” between values parts separate entries of the source, which are not always exact repeats. Identical values can stand only once.

Experiments:
[1] = test system: generation of hydrogen peroxide (H2O2) by iron; assay: H2O2 Inhibition Assay; type: biochemical
Protocol: Assay 1. H2O2 Inhibition Assay.
(§1) This fluoresence assay evaluates the ability of a test compound to inhibit the generation of hydrogen peroxide (H2O2) by iron in the presence of a reducing substrate such as ascorbic acid. In the assay, iron in the form of FeCl3 or copper is allowed to react with ascorbic acid by incubating for 1 hr at 37° C. in the presence of the fluorescing compound DCF and horseradish peroxidase. H2O2 generated by the system is assessed by measuring the specific fluorescence profile at the excitation and emission wavelengths of 485 and 530 nm respectively, in the presence of increasing concentrations of test compound. Test compounds are ranked according to their capacity to inhibit H2O2 generated by the system where lower values reflect greater ability to inhibit H2O2 production.

Fe-DA = assay: H2O2 assay, Fe-DA (% cf. Fe 0.4 μM/DA 50 μM); type: biochemical; settings: Fe 0.4 μM/DA 50 μM
Protocol: as §1

[2] = test system: M17 human neuroblastoma cells; assay: Metal Uptake Assay (metal transport); type: cell-based; settings: 10 μM Cu + 10 μM compound, 5 hours
Protocol: Assay 3. Metal Uptake Assay
M17 human neuroblastoma cells are plated out on 6 well plates and left overnight. Enough cells are added to give approximately 70% confluent the following day of the experiment. Test compounds are added to media and mixed with equi-molar amounts of CuCl2 solution. A=10 μM Cu+10 μM MPAC; B=10 μM Cu+10 μM MPAC.
Cells are incubated in 1 ml of media/MPAC/Cu mix for 5 hours at 37° C. At the end of the incubation the media is removed with a vacuum aspirator and 1 ml of PBS added to dislodge the cells. Cells are then put into Eppendorf tubes and pelleted. The PBS is removed and the remaining cell pellets are frozen at −20 C.
The cell pellets are prepared as follows:
Received cell pellets of similar levels in 1.5 ml microfuge tubes. Added 50 μl of concentrated Nitric Acid (Aristar, BDH) to each cell pellet and allowed them to digest over night. Heated the samples for 20 min at 90° C. to complete the digestion. The volume of each sample was reduced to ˜45 ul after digestion. Added 1 ml of the 1% Nitric Acid diluent to each sample. (referred to as the “preparation solution” samples).
Measurements were made using a Varian UltraMass ICPMS instrument under operating conditions suitable for routine multi-element analysis.
The instrument was calibrated using Blank, 10, 50 and 100 ppb of a certified multi-element ICPMS standard solution (ICP-MS—CAI2-1, Accustandard) for Fe, Cu and Zn in 1% nitric acid. Used an certified internal standard solution containing 100 ppb Yttrium (Y 89) as an internal control (ICP-MS—IS-MIX1-1, Accustandard).

Neuronal cortical cells = assay: Cytotox (% viable); Primary Neuronal Cells Neurotoxicity Assay; type: cell-based, mouse; settings: cell type not given, repeat values given
Protocol: Assay 2 (a). Primary Neuronal Cells Neurotoxicity Assays
Cortical cultures were prepared as previously described (White et al., 1998). Embryonic day 14 BL6Jx129sv mouse cortices were removed, dissected free of meninges and dissociated in 0.025% (wt/vol) trypsin. Dissociated cells were plated in 48 well culture plates at a density of 2×10^6 cells/mL in MEM with 25% (vol/vol) FCS and 5% (vol/vol) HS and incubated at 37° C., 2 hrs. Media was then replaced with Neurobasal media (Invitrogen Life Technologies) and B27 supplements (Invitrogen Life Technologies). Cultures were maintained at 37° C. in 5% CO2. Prior to experimentation, the culture medium was replaced with Neurobasal media and B27 minus antioxidants (Invitrogen Life Technologies).
Neuronal cortical cells were cultured for five days as per Assay 2 in NB media and B27 supplement.
On day six the test compounds were added to the neuronal cell cultures in NB media and B27 supplement minus antioxidants.
Test compounds were dissolved in 100% DMSO to a concentration of 2.5 mM (10 mM if excess compound was weighed out per vial—then diluted to 2.5 mM). 2.5 mM stock solution was serially diluted 1 in 10 to give working solutions of 250 uM, 25 uM, 2.5 uM. Test compounds were not added directly to cells, instead they were added to a 48 well ‘Drug Plate’ as comprised below: • Preparation of “Drug Plate”:
Well 1: 576 ul NB+B27 (no antioxidant)*+24 ul 2.5 uM test compound
Well 2: 576 ul NB+B27 (no antioxidant)+24 μl 25 uM test compound
Well 3: 576 ul NB+B27 (no antioxidant)+24 ul 250 uM test compound
Well 4: 576 ul NB+B27 (no antioxidant)+24 ul 2.5 uM test compound
Well 5: 576 ul NB+B27 (no antioxidant)+24 ul 25 uM test compound
Well 6: 576 ul NB+B27 (no antioxidant)+24 ul 250 uM test compound
Well 7: 576 ul NB+B27 (no antioxidant)+24 ul test compound diluent**
Well 8: 600 ul NB+B27 (no antioxidant)
The Drug Plate was incubated at 37° C. for 15 mins. 200 ul of each well was added in triplicate to the corresponding cell plate. The cell plate was incubated at 37° C., for 4 days, (2 compounds are tested on each plate of cells).
*NB media and B27 (no antioxidants),
**PBT diluent 10% DMSO in NB+1327 (no antioxidants)
On completion of the assay, 1/10 volume MTS was added per well of plate (ie 25 ul/250 ul). The plates were incubated at 37° C. for 2 hrs, and then absorbance was read at 560 nm.

## C#CCN(C)Cc1nc2c(O)c(Cl)cc(Cl)c2c(=O)n1CC [Compound F4392]
[1]
  IC50: 570 nM
Fe-DA
  Fe-DA % cf. Fe 0.4 μM/DA 50 μM: 72%
[2]
  Metal transport: Metal transport 161%

## Cn1c(CN2CCCCC2)nc2c(O)c(Cl)cc(Cl)c2c1=O [Compound F4475]
[1]
  IC50: 500 nM
Fe-DA
  Fe-DA % cf. Fe 0.4 μM/DA 50 μM: 80%
[2]
  Metal transport: Metal transport 8%

## CCCNCc1nc2c(O)c(Cl)cc(Cl)c2c(=O)n1C [Compound F4477]
[1]
  IC50: 220 nM
Fe-DA
  Fe-DA % cf. Fe 0.4 μM/DA 50 μM: 65%
[2]
  Metal transport: Metal transport 16%

## CN(Cc1ccc(F)cc1)Cc1nc2c(O)c(Cl)cc(Cl)c2c(=O)n1CC1CC1 [Compound F4480]
Neuronal cortical cells
  Cytotox (% viable at 1 uM): 91.6% and 106.7%
  Cytotox (% viable at 10 uM): 30.3% and 33.3%
[1]
  IC50: 470 nM
Fe-DA
  Fe-DA % cf. Fe 0.4 μM/DA 50 μM: 46%
[2]
  Metal transport: Metal transport 138%

## CCn1c(CN(C)Cc2ccc(F)cc2)nc2c(O)c(Cl)cc(Cl)c2c1=O [Compound F4487]
[1]
  IC50: 760 nM
Fe-DA
  Fe-DA % cf. Fe 0.4 μM/DA 50 μM: 53%
[2]
  Metal transport: Metal transport 133%

## CCCn1c(CN2CCCCC2)nc2c(O)c(Cl)cc(Cl)c2c1=O [Compound F4492]
[1]
  IC50: 1140 nM
Fe-DA
  Fe-DA % cf. Fe 0.4 μM/DA 50 μM: 55%
[2]
  Metal transport: Metal transport 18%

## O=c1c2c(Cl)cc(Cl)c(O)c2nc(CN2CCCC2)n1CC1CC1 [Compound F4499]
Neuronal cortical cells
  Cytotox (% viable at 1 uM): 99.1% and 76.5%
  Cytotox (% viable at 10 uM): 68.6% and 78.1%
[1]
  IC50: 1890 nM
Fe-DA
  Fe-DA % cf. Fe 0.4 μM/DA 50 μM: 55%
[2]
  Metal transport: Metal transport 15%

## CCCn1c(CN(C)C)nc2c(O)c(Cl)cc(Cl)c2c1=O [Compound F4530]
Neuronal cortical cells
  Cytotox (% viable at 1 uM): 105.0% and 96.2%
  Cytotox (% viable at 10 uM): 57.6% and 41.4%
[1]
  IC50: 290 nM
Fe-DA
  Fe-DA % cf. Fe 0.4 μM/DA 50 μM: 57%
[2]
  Metal transport: Metal transport 24%

## CCCN(CCC)Cc1nc2c(O)c(Cl)cc(Cl)c2c(=O)n1CC1CC1 [Compound F4535]
Neuronal cortical cells
  Cytotox (% viable at 1 uM): 87.0% and 103.0%
  Cytotox (% viable at 10 uM): 63.6% and 59.8%
[1]
  IC50: 880 nM
Fe-DA
  Fe-DA % cf. Fe 0.4 μM/DA 50 μM: 62%
[2]
  Metal transport: Metal transport 25%

## CN(Cc1nc2c(O)c(Cl)cc(Cl)c2c(=O)n1CC1CC1)C1CCCCC1 [Compound F4536]
Neuronal cortical cells
  Cytotox (% viable at 1 uM): 92.7% and 105.1% and 109.8%
[1]
  IC50: 1000 nM
Fe-DA
  Fe-DA % cf. Fe 0.4 μM/DA 50 μM: 81%
[2]
  Metal transport: Metal transport 24%

## CCCn1c(CNCC)nc2c(O)c(Cl)cc(Cl)c2c1=O [Compound F4540]
Neuronal cortical cells
  Cytotox (% viable at 1 uM): 100.4% and 111.5%
  Cytotox (% viable at 10 uM): 83.4% and 96.5%
[1]
  IC50: > 10000 nM
Fe-DA
  Fe-DA % cf. Fe 0.4 μM/DA 50 μM: 122%
[2]
  Metal transport: Metal transport 14%

## CCCn1c(CN(CC)CC)nc2c(O)c(Cl)cc(Cl)c2c1=O [Compound F4541]
Neuronal cortical cells
  Cytotox (% viable at 1 uM): 97.3% and 96.4%
  Cytotox (% viable at 10 uM): 76.6% and 90.8%
[1]
  IC50: 740 nM
Fe-DA
  Fe-DA % cf. Fe 0.4 μM/DA 50 μM: 107%
[2]
  Metal transport: Metal transport 13%

## CCCNCc1nc2c(O)c(Cl)cc(Cl)c2c(=O)n1CCC [Compound F4542]
Neuronal cortical cells
  Cytotox (% viable at 1 uM): 105.8% and 102.9% and 94.3%
[1]
  IC50: 360 nM
Fe-DA
  Fe-DA % cf. Fe 0.4 μM/DA 50 μM: 47%
[2]
  Metal transport: Metal transport 30%

## CCCN(CCC)Cc1nc2c(O)c(Cl)cc(Cl)c2c(=O)n1CCC [Compound F4543]
Neuronal cortical cells
  Cytotox (% viable at 1 uM): 92.0% and 107.4%
  Cytotox (% viable at 10 uM): 52.6% and 61.5%
[1]
  IC50: 500 nM
Fe-DA
  Fe-DA % cf. Fe 0.4 μM/DA 50 μM: 71%
[2]
  Metal transport: Metal transport 62%

## CNCc1nc2c(O)c(Cl)cc(Cl)c2c(=O)n1CC(C)C [Compound F4544]
Neuronal cortical cells
  Cytotox (% viable at 1 uM): 84.0% and 86.9%
  Cytotox (% viable at 10 uM): 29.7% and 26.7%
[1]
  IC50: 830 nM
Fe-DA
  Fe-DA % cf. Fe 0.4 μM/DA 50 μM: 164%
[2]
  Metal transport: Metal transport 19%

## CCNCc1nc2c(O)c(Cl)cc(Cl)c2c(=O)n1CC(C)C [Compound F4545]
Neuronal cortical cells
  Cytotox (% viable at 1 uM): 86.4% and 85.0%
  Cytotox (% viable at 10 uM): 36.2% and 28.0%
[1]
  IC50: 430 nM
Fe-DA
  Fe-DA % cf. Fe 0.4 μM/DA 50 μM: 148%
[2]
  Metal transport: Metal transport 40%

## CCN(CC)Cc1nc2c(O)c(Cl)cc(Cl)c2c(=O)n1CC(C)C [Compound F4546]
Neuronal cortical cells
  Cytotox (% viable at 1 uM): 95.6% and 92.2% and 103.3%
  Cytotox (% viable at 10 uM): 63.7% and 86.5% and 100.3%
[1]
  IC50: 460 nM
Fe-DA
  Fe-DA % cf. Fe 0.4 μM/DA 50 μM: 66%
[2]
  Metal transport: Metal transport 21%

## CCCNCc1nc2c(O)c(Cl)cc(Cl)c2c(=O)n1CC(C)C [Compound F4547]
Neuronal cortical cells
  Cytotox (% viable at 1 uM): 75.0% and 83.9%
  Cytotox (% viable at 10 uM): 25.2% and 26.0%
[1]
  IC50: 500 nM
Fe-DA
  Fe-DA % cf. Fe 0.4 μM/DA 50 μM: 34%
[2]
  Metal transport: Metal transport 54%

## CCCN(CCC)Cc1nc2c(O)c(Cl)cc(Cl)c2c(=O)n1CC(C)C [Compound F4548]
Neuronal cortical cells
  Cytotox (% viable at 1 uM): 96.5% and 96.0%
  Cytotox (% viable at 10 uM): 55.9% and 46.0%
[1]
  IC50: 380 nM
Fe-DA
  Fe-DA % cf. Fe 0.4 μM/DA 50 μM: 40%
[2]
  Metal transport: Metal transport 38%

## CCCNCc1nc2c(O)c(Cl)cc(Cl)c2c(=O)n1CC [Compound F4549]
Neuronal cortical cells
  Cytotox (% viable at 1 uM): 98.5% and 99.7%
  Cytotox (% viable at 10 uM): 44.6% and 52.1%
[1]
  IC50: 300 nM
Fe-DA
  Fe-DA % cf. Fe 0.4 μM/DA 50 μM: 40%
[2]
  Metal transport: Metal transport 22%

## CCN(C)Cc1nc2c(O)c(Cl)cc(Cl)c2c(=O)n1CC1CC1 [Compound F4581]
[1]
  IC50: 500 nM

## CCN(C)Cc1nc2c(O)c(Cl)cc(Cl)c2c(=O)n1C [Compound F4582]
[1]
  IC50: 550 nM
